Read-outs that look alike come from different tables or passages of the source.
How the values were obtained:
[1] = system: Escherichia coli (ATCC 25922); assay: MIC, broth microdilution; details: Escherichia coli
[2] = system: rats; assay: Nephrotoxicity of test compounds in rats; details: once daily subcutaneous
[3] = system: various bacteria; assay: MICs of 44 and 45, representative strains and strains expressing aminoglycoside modifying enzymes; format: cell-based; details: Tables 7 and 8, frequently
Procedure: To compare microbiological activity of the test compounds, minimum inhibitory concentrations (MIC.s) were determined. Antibiotic MICs were obtained using the broth microdilution method according to Clinical and Laboratory Standards Institute (CLSI) approved guidelines (Methods for dilution antimicrobial susceptibility tests for bacteria that grow aerobically; approved standard—7th ed. CLSI document M7-A7. Clinical and Laboratory Standards Institute, Wayne, Pa., incorporated herein by reference in its entirety). Antibiotics were dissolved as specified by CLSI (Performance standards for antimicrobial susceptibility testing; Seventeenth informational supplement. CLSI document M100-S17. Clinical and Laboratory Standards Institute, Wayne, Pa., incorporated herein by reference in its entirety), and were serially diluted 2-fold in cation adjusted Mueller Hinton Broth (CaMHB) at 2× concentration. Bacterial inoculums were prepared in CaMHB by suspension of a colony from an agar plate that was prepared the previous day to obtain a final concentration of 5×10^5CFU/ml. The plates were incubated for 18 hours at 35° C. […] MIC.s were determined by reading the turbidity of plate wells using a SpectraMax Plus384 plate reader (Molecular Devices, Sunnyvale, Calif., USA) at 600 nm and were confirmed by visual inspection.

[4] = ATCC25922, read-out: Compound MIC on Bacterial Strains: E. coli ATCC 25922
[5] = ATCC25922, read-out: Compound MIC on Bacterial Strains: ECM6000 ATCC 25922
[6] = ATCC25922, read-out: Compound MIC on Bacterial Strains: Escherichia coli ECM6000 ATCC 25922
[7] = ATCC25922, read-out: MIC Escherichia coli ECM6025 ATCC 25922

Compound | MIC [1, 4] [µg/mL] | MIC [1, 5] [µg/mL] | MIC [1, 6] [µg/mL] | MIC [1, 7] [µg/mL] | Histopathology Results After 7 days of Dosing ([2]; 30 mg/kg/day) | Histopathology Results After 14 days of Dosing ([2]; 30 mg/kg/day) | Histopathology Results After 7 days of Dosing ([2]; 60 mg/kg/day) | Histopathology Results After 14 days of Dosing ([2]; 60 mg/kg/day) | fold more active than 45 (MIC) [3]
CN[C@@H]1C(O)[C@@H](OC2C(O)C(O[C@H]3O[C@H](CNC[C@@H](O)CO)CCC3N)[C@@H](N)C[C@H]2NC(=O)[C@@H](O)CN)OCC1(C)O (stereo partly shown) [Compound 44] | < 1 | < 1 | < 1 | < 1 | No change | No change | No change | Minimal Hyaline-droplet | 2- to 4 fold
CN[C@@H]1[C@@H](O)[C@@H](O[C@@H]2[C@@H](O)[C@H](O[C@H]3O[C@H](CNC[C@H](O)CO)CC[C@H]3N)[C@@H](N)C[C@H]2NC(=O)[C@@H](O)CN)OC[C@]1(C)O [Compound 45, (S)-3-amino-N-((1R,2S,3S,4R,5S)-5-amino-4-((2R,3R,6S)-3-amino-6-(((S)-2,3-dihydroxypropylamino)methyl)tetrahydro-2H-pyran-2-yloxy)-2-((2R,3R,4R,5R)-3,5-dihydroxy-5-methyl-4-(methylamino)tetrahydro-2H-pyran-2-yloxy)-3-hydroxycyclohexyl)-2-hydroxypropanamide] | < 1 | < 1 | < 1 | < 1 | – | – | – | – | –
